Series [1] in a line: Selectivity index, ratio of CC50 for human MRC5 cells to IC50 for plasmodium falciparum FCR3. Format: toxicity. The conditions noted are these: read-out: Ratio CC50/IC50.
Series [2] is described as follows: Cytotoxicity against human MRC5 cells assessed as reduction in cell viability after 24 hrs by MTT assay. The class given is toxicity, cell-based. (Tetrazolium dyes change colour on reduction, which living cells bring about.)
Series [3] relates to Plasmodium falciparum. The experiment in a line: Antiplasmodial activity against Plasmodium falciparum K1 assessed as reduction in parasite growth incubated for 72 hr by LDH assay. Format: functional, organism-based. The following applies: K1, 72 h.
In the next series the test system is Plasmodium berghei. In words: Antiplasmodial activity against plasmodium berghei N strain infected in ICR(CD1) mouse assessed as inhibition of parasitemia at 30 mg/kg, ip administered for 3 days relative to control. The conditions noted are these: 72 h, time 3 day. Format: functional.
Series [4] deals with Plasmodium falciparum. In words: Antiplasmodial activity against Plasmodium falciparum FCR3 assessed as reduction in parasite growth incubated for 72 hr by LDH assay. The class given is functional, organism-based. The conditions noted are these: FCR3, 72 h.
The nature of series [5]: Selectivity index, ratio of CC50 for human MRC5 cells to IC50 for plasmodium falciparum K1. The class given is toxicity. The conditions noted are these: read-out: Ratio CC50/IC50.
Series [6] is described as follows: Inhibition of HDAC in Plasmodium falciparum infected in human erythrocytes incubated for 2 hr in presence of sodium [14C]acetate by radiometry assay. Format: cell-based. The following applies: Erythrocyte.

Here are results for four molecules from ChEMBL document CHEMBL5126655, “Koshidacins A and B, Antiplasmodial Cyclic Tetrapeptides from the Okinawan Fungus Pochonia boninensis FKR-0564” (J Nat Prod, 2022).

A word on the CC50: it is the concentration at which the toxic effect on the cells reaches its halfway point. As a reminder, the IC50 is the concentration that inhibits the measured activity by half. In general, inhibition in vivo refers to the percentage by which the read-out fell short of the control. On to `CC1(C)NC(=O)[C@H](CCCCC[C@@H](O)[C@@H](O)CO)NC(=O)[C@H]2CCCN2C(=O)[C@H](Cc2ccccc2)NC1=O`, for which the selectivity ratio in series [1] was 0.4; in series [5], 0.5. Moreover, in series [2], the CC50 at 24 h is 6800 nM. Also, the IC50 is 12500 nM in the series with Plasmodium falciparum [3] and 17100 nM with Plasmodium falciparum [4]. Moreover, the inhibition in vivo at 30 mg/kg in the series with Plasmodium berghei was 18.3%.

For the molecule `CCC(=O)CCCCC[C@@H]1NC(=O)[C@H]2CCCCN2C(=O)[C@H]([C@@H](C)CC)NC(=O)[C@H](Cc2cn(OC)c3ccccc23)NC1=O` [APICIDIN], the IC50 in series [6] came to 0.7 nM.

`CC1(C)NC(=O)[C@H](CCCCCC(=O)[C@@H](O)CO)NC(=O)[C@H]2CCCN2C(=O)[C@H](Cc2ccccc2)NC1=O`: the selectivity ratio in series [1] is 16.3; in series [5], 18.4. Moreover, in series [2], the CC50 at 24 h is 14700 nM. The values for the IC50 with Plasmodium falciparum [3] and in the series with Plasmodium falciparum [4] were 830 nM and 890 nM, respectively. Further, the inhibition in vivo at 30 mg/kg in the series with Plasmodium berghei was 41%.

Regarding `C[C@@H]1CC[C@H]2[C@@H](C)C(=O)O[C@@H]3O[C@@]4(C)CC[C@@H]1[C@]32OO4` [ARTEMISININ], the selectivity ratio in series [1] is more than 961; in series [5], more than 1140. Moreover, the CC50 at 24 h in series [2] is more than 25000 nM. The IC50 turned out to be 22 nM with Plasmodium falciparum [3] and 26 nM with Plasmodium falciparum [4]. Moreover, in the series with Plasmodium berghei, the inhibition in vivo at 30 mg/kg came out at 99.7%.
